Reference: patent US12077503B2, “Substituted cyclic amides and their use as herbicides” (FMC CORPORATION, priority 2015, dated 2024)
Read-outs that look alike come from different tables or passages of the source.

Legend:
Assay type in all cases: in vivo
[1] = tested on: Galium (catchweed bedstraw, Galium aparine); test: Test A postemergence; conditions: Galium, post-emergence, 240 h; for pest or weed control at 125 g/ha: 125 g ai/ha, visual injury vs untreated controls after approx. 10 d, 0 = no effect, 100 = complete control, read-out: Galium plant response rating (0 to 100 scale); for pest or weed control at 500 g/ha: 500 g ai/ha
In short: (§1)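 Greenhouse, ~10 d after spray; visual injury vs untreated controls, 0 = no effect, 100 = complete control. Preemergence: directed soil spray over planted seeds. Postemergence: plants 2–10 cm, 1–2 leaf stage. Loam/sand blend. Compound in non-phytotoxic solvent with surfactant.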

[2] = tested on: corn (Zea mays); test: Test A postemergence; conditions: Zea mays, post-emergence, 240 h; for plant injury at 125 g/ha: 125 g ai/ha, visual injury vs untreated controls after approx. 10 d, 0 = no effect, 100 = complete control, read-out: Corn plant response rating (0 to 100 scale)
In short: as §1

[3] = tested on: ragweed (common ragweed, Ambrosia elatior); test: Test A postemergence; conditions: Ambrosia artemisiifolia, post-emergence, 240 h; for pest or weed control at 125 g/ha: 125 g ai/ha, visual injury vs untreated controls after approx. 10 d, 0 = no effect, 100 = complete control, read-out: Ragweed plant response rating (0 to 100 scale); for pest or weed control at 500 g/ha: 500 g ai/ha
In short: as §1

[4] = tested on: pigweed (Amaranthus retroflexus); test: Test A postemergence; conditions: Amaranthus retroflexus, post-emergence, 240 h; for pest or weed control at 125 g/ha: 125 g ai/ha, visual injury vs untreated controls after approx. 10 d, 0 = no effect, 100 = complete control, read-out: Pigweed plant response rating (0 to 100 scale); for pest or weed control at 500 g/ha: 500 g ai/ha
In short: as §1

[5] = tested on: Kochia (Kochia scoparia); test: Test A postemergence; conditions: Bassia scoparia, post-emergence, 240 h; for pest or weed control at 125 g/ha: 125 g ai/ha, visual injury vs untreated controls after approx. 10 d, 0 = no effect, 100 = complete control, read-out: Kochia plant response rating (0 to 100 scale); for pest or weed control at 500 g/ha: 500 g ai/ha
In short: as §1

[6] = tested on: barnyardgrass (Echinochloa crus-galli); test: Test A postemergence; conditions: Echinochloa crus-galli, post-emergence, 240 h; for pest or weed control at 125 g/ha: 125 g ai/ha, visual injury vs untreated controls after approx. 10 d, 0 = no effect, 100 = complete control, read-out: Barnyardgrass plant response rating (0 to 100 scale); for pest or weed control at 500 g/ha: 500 g ai/ha
In short: as §1

[7] = tested on: wheat (Triticum aestivum); test: Test A postemergence; conditions: Triticum aestivum, post-emergence, 240 h; for plant injury at 125 g/ha: 125 g ai/ha, postemergence, visual injury vs untreated controls after approx. 10 d, 0 = no effect, 100 = complete control, read-out: Wheat plant response rating (0 to 100 scale)
In short: as §1

[8] = tested on: giant foxtail (Setaria faberii); test: Test A postemergence; conditions: Setaria faberi, post-emergence, 240 h; for pest or weed control at 125 g/ha: 125 g ai/ha, visual injury vs untreated controls after approx. 10 d, 0 = no effect, 100 = complete control, read-out: Foxtail, Giant plant response rating (0 to 100 scale); for pest or weed control at 500 g/ha: 500 g ai/ha
In short: as §1

[9] = tested on: ryegrass, Italian (Italian ryegrass, Lolium multiflorum); test: Test A postemergence; conditions: Lolium multiflorum, post-emergence, 240 h; for pest or weed control at 125 g/ha: 125 g ai/ha, visual injury vs untreated controls after approx. 10 d, 0 = no effect, 100 = complete control, read-out: Ryegrass, Italian plant response rating (0 to 100 scale); for pest or weed control at 500 g/ha: 500 g ai/ha
In short: as §1

[10] = tested on: blackgrass (Alopecurus myosuroides); test: Test A postemergence; conditions: Alopecurus myosuroides, post-emergence, 240 h; for pest or weed control at 125 g/ha: 125 g ai/ha, visual injury vs untreated controls after approx. 10 d, 0 = no effect, 100 = complete control, read-out: Blackgrass plant response rating (0 to 100 scale); for pest or weed control at 500 g/ha: 500 g ai/ha
In short: as §1

[11] = tested on: ragweed (common ragweed, Ambrosia elatior); test: Test A preemergence; conditions: Ambrosia artemisiifolia, pre-emergence, 240 h, preemergence, 0 to 100 scale where 0 is no effect and 100 is complete control, read-out: Ragweed plant response rating; for pest or weed control at 125 g/ha: 125 g ai/ha, visual injury rating, approximately 10 d; for pest or weed control at 500 g/ha: 500 g ai/ha
In short: as §1

[12] = tested on: pigweed (Amaranthus retroflexus); test: Test A preemergence; conditions: Amaranthus retroflexus, pre-emergence, 240 h, preemergence, 0 to 100 scale where 0 is no effect and 100 is complete control, read-out: Pigweed plant response rating; for pest or weed control at 125 g/ha: 125 g ai/ha, visual injury rating, approximately 10 d; for pest or weed control at 500 g/ha: 500 g ai/ha
[13] = tested on: Kochia (Kochia scoparia); test: Test A preemergence; conditions: Bassia scoparia, pre-emergence, 240 h, preemergence, 0 to 100 scale where 0 is no effect and 100 is complete control, read-out: Kochia plant response rating; for pest or weed control at 125 g/ha: 125 g ai/ha, visual injury rating, approximately 10 d; for pest or weed control at 500 g/ha: 500 g ai/ha
In short: as §1

[14] = tested on: giant foxtail (Setaria faberii); test: Test A preemergence; conditions: Setaria faberi, pre-emergence, 240 h, preemergence, 0 to 100 scale where 0 is no effect and 100 is complete control, read-out: Foxtail, Giant plant response rating; for pest or weed control at 125 g/ha: 125 g ai/ha, visual injury rating, approximately 10 d; for pest or weed control at 500 g/ha: 500 g ai/ha
In short: as §1

[15] = tested on: ryegrass, Italian (Italian ryegrass, Lolium multiflorum); test: Test A preemergence; conditions: Lolium multiflorum, pre-emergence, 240 h, preemergence, 0 to 100 scale where 0 is no effect and 100 is complete control, read-out: Ryegrass, Italian plant response rating; for pest or weed control at 125 g/ha: 125 g ai/ha, visual injury rating, approximately 10 d; for pest or weed control at 500 g/ha: 500 g ai/ha
In short: as §1

SMILES	pest or weed control at 125 g/ha ([1]; postemergence) [%]	plant injury at 125 g/ha ([2]; postemergence) [%]	pest or weed control at 125 g/ha ([3]; postemergence) [%]	pest or weed control at 125 g/ha ([4]; postemergence) [%]	pest or weed control at 125 g/ha ([5]; postemergence) [%]	pest or weed control at 125 g/ha ([6]; postemergence) [%]	plant injury at 125 g/ha [7] [%]	pest or weed control at 125 g/ha ([8]; postemergence) [%]	pest or weed control at 125 g/ha ([9]; postemergence) [%]	pest or weed control at 125 g/ha ([10]; postemergence) [%]	pest or weed control at 125 g/ha [11] [%]	pest or weed control at 500 g/ha [11] [%]	pest or weed control at 125 g/ha [12] [%]	pest or weed control at 500 g/ha [12] [%]	pest or weed control at 125 g/ha [13] [%]	pest or weed control at 500 g/ha [13] [%]	pest or weed control at 125 g/ha [14] [%]	pest or weed control at 500 g/ha [14] [%]	pest or weed control at 125 g/ha [15] [%]	pest or weed control at 500 g/ha [15] [%]	further results
Cc1ccc([C@H]2CNC(=O)[C@@H]2C(=O)Nc2c(F)cccc2F)cc1C [Compound 1247]	0	0	0	0	0	40	0	0	0	0	0	0	0	0	0	30	20	80	0	20	pest or weed control at 500 g/ha ([1]; Postemergence, visual injury, 0 to 100 scale (0 no effect, 100 complete control), approx. 10 d, read-out: Plant response rating, Galium): 20%; Corn plant response rating (crop injury, 0 = no effect, 100 = complete kill) at 500 g/ha ([2]; Postemergence, 500 g ai/ha, visual injury, 0 to 100 scale (0 no effect, 100 complete control), approx. 10 d): 0%; pest or weed control at 500 g/ha ([3]; Postemergence, visual injury, 0 to 100 scale (0 no effect, 100 complete control), approx. 10 d, read-out: Plant response rating, Ragweed): 0%; pest or weed control at 500 g/ha ([4]; Postemergence, visual injury, 0 to 100 scale (0 no effect, 100 complete control), approx. 10 d, read-out: Plant response rating, Pigweed): 0%; pest or weed control at 500 g/ha ([5]; Postemergence, visual injury, 0 to 100 scale (0 no effect, 100 complete control), approx. 10 d, read-out: Plant response rating, Kochia): 0%; pest or weed control at 500 g/ha ([6]; Postemergence, visual injury, 0 to 100 scale (0 no effect, 100 complete control), approx. 10 d, read-out: Plant response rating, Barnyardgrass): 70%; plant injury at 500 g/ha ([7]; Postemergence, 500 g ai/ha, visual injury, 0 to 100 scale (0 no effect, 100 complete control), approx. 10 d, read-out: Plant response rating, Wheat): 0%; pest or weed control at 500 g/ha ([8]; Postemergence, visual injury, 0 to 100 scale (0 no effect, 100 complete control), approx. 10 d, read-out: Plant response rating, Foxtail, Giant): 30%; pest or weed control at 500 g/ha ([9]; Postemergence, visual injury, 0 to 100 scale (0 no effect, 100 complete control), approx. 10 d, read-out: Plant response rating, Ryegrass, Italian): 0%; pest or weed control at 500 g/ha ([10]; Postemergence, visual injury, 0 to 100 scale (0 no effect, 100 complete control), approx. 10 d, read-out: Plant response rating, Blackgrass): 0%
CN1C[C@H](c2ccc(C(F)(F)F)cc2)[C@@H](C(=O)Nc2cccc(Cl)c2F)C1=O [Compound 1238]	20	20	0	0	30	50	0	60	20	30	0	50	0	60	60	60	90	90	0	50	pest or weed control at 500 g/ha ([1]; postemergence, 0 to 100 scale, 0 is no effect, 100 is complete control, read-out: Galium plant response rating): 50%; plant injury at 500 g/ha ([2]; 500 g ai/ha, postemergence, 0 to 100 scale, 0 is no effect, 100 is complete control, read-out: Corn plant response rating): 40%; pest or weed control at 500 g/ha ([3]; postemergence, 0 to 100 scale, 0 is no effect, 100 is complete control, read-out: Ragweed plant response rating): 20%; pest or weed control at 500 g/ha ([4]; postemergence, 0 to 100 scale, 0 is no effect, 100 is complete control, read-out: Pigweed plant response rating): 30%; pest or weed control at 500 g/ha ([5]; postemergence, 0 to 100 scale, 0 is no effect, 100 is complete control, read-out: Kochia plant response rating): 50%; pest or weed control at 500 g/ha ([6]; postemergence, 0 to 100 scale, 0 is no effect, 100 is complete control, read-out: Barnyardgrass plant response rating): 80%; pest or weed control at 500 g/ha ([8]; postemergence, 0 to 100 scale, 0 is no effect, 100 is complete control, read-out: Foxtail, Giant plant response rating): 80%; pest or weed control at 500 g/ha ([9]; postemergence, 0 to 100 scale, 0 is no effect, 100 is complete control, read-out: Ryegrass, Italian plant response rating): 60%; pest or weed control at 500 g/ha ([10]; postemergence, 0 to 100 scale, 0 is no effect, 100 is complete control, read-out: Blackgrass plant response rating): 50%
